Test results from PubChem BioAssay AID602120 (Johns Hopkins Ion Channel Center, 2011).

Target: Potassium voltage-gated channel subfamily KQT member 1 (Homo sapiens) (UniProt P51787)
Experiment: PubChem AID 602120
Conditions: KCNQ1-CHO cells, manual whole-cell patch clamp current; at 0.3 µM; hits give high values

Sequence of Potassium voltage-gated channel subfamily KQT member 1 (Homo sapiens) (P51787 whole entry, looked up): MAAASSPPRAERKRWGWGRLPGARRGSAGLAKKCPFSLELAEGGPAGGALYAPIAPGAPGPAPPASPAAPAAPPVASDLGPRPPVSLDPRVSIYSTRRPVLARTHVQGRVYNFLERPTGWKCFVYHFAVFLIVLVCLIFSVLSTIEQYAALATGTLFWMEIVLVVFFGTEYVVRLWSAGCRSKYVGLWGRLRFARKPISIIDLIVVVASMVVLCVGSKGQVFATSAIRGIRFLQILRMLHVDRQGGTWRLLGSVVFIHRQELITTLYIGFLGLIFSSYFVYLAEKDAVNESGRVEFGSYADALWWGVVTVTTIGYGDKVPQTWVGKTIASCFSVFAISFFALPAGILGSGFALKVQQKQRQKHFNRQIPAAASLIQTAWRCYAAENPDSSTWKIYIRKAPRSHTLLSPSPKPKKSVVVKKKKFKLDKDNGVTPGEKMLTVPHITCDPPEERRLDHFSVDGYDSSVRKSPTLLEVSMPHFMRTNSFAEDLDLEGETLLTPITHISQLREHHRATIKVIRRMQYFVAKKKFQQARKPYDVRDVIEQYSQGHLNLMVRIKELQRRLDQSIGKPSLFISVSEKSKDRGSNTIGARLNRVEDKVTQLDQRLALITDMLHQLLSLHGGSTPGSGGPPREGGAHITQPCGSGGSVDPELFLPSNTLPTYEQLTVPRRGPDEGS

- fold activation: 46.9
Compound: COc1ccc(-c2csc(NC(=O)[C@H]3CCCCN3S(=O)(=O)c3ccc(C)cc3)n2)cc1
